Measurements reported in ChEMBL document CHEMBL4715696, “In vitro synergistic anticancer activity of the combination of T-type calcium channel blocker and chemotherapeutic agent in A549 cells” (Bioorg Med Chem Lett, 2016).

System: A549
Assay: Decrease in cell cycle associated protein expression in human A549 cells assessed as fold change in cyclin D3 expression at 10 uM after 12 hrs by Western blot analysis (reference value: 1.09)
Format: functional

## CN(C)C(=O)NCCCN(C)C1=Nc2ccccc2C(CC(=O)NCc2ccc(F)cc2)N1c1ccc(C2CCCCC2)cc1 (stereo unspecified)
  fold change (FC): 0.42
